We go through 16 molecules from PubChem BioAssay (NCI).

Test systems include COLO 205 colon; K-562 leukemia; OVCAR-3 ovarian; OVCAR-5 ovarian; RPMI-8226 leukemia; SF-295 CNS; SK-MEL-5 melanoma; SR leukemia; SNB-75 CNS.
What all share (assay): DTP human tumour cell line panel, 48 h

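Cultured in 96-well plates, cells were exposed to test compound for 48 hours across five concentrations. TGI is the concentration that stops growth completely.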

`CN1C2=Nc3n(c4ccccc4[n+]3C)CN2c2ccccc21`: the total growth inhibition concentration (TGI) in the test on COLO 205 colon was 41.9 µM; with K-562 leukemia it was over 100 µM; in the test with OVCAR-3 ovarian, 34.7 µM; in the test on OVCAR-5 ovarian it was over 100 µM; in the test on RPMI-8226 leukemia, over 100 µM; in the test with SF-295 CNS, over 100 µM. The TGI came to 27.8 µM in the test on SK-MEL-5 melanoma and 81.5 µM with SR leukemia.
Take `C=CN(C=C)C(=O)Cn1cc(-c2ccccc2)nn1`: the concentration for total growth inhibition (TGI) in the test on COLO 205 colon, in the test on K-562 leukemia, in the test with OVCAR-5 ovarian, in the test with RPMI-8226 leukemia, in the test on SF-295 CNS and with SK-MEL-5 melanoma was over 100 µM each time. For the same molecule, the TGI in the test on SNB-75 CNS and with SR leukemia was over 100 µM throughout.
For the molecule `CC(=O)Oc1ccn2nc(C)c(Br)c2c1`, the TGI with COLO 205 colon was 75.5 µM; in the test with K-562 leukemia it was over 100 µM; in the test on OVCAR-3 ovarian, over 100 µM; in the test with OVCAR-5 ovarian, over 100 µM; with SF-295 CNS, over 100 µM; with SK-MEL-5 melanoma, over 100 µM. In addition, the TGI in the test with SNB-75 CNS is 97.2 µM; in the test with SR leukemia, over 100 µM.
With `CC1(C)OCC(C2OC(C)(C)OC2[C@H]2O[C@@]3(O)[C@H]4[C@H](C=CC[C@@H]42)[C@@H](OCc2ccccc2)[C@H](OCc2ccccc2)[C@H]3OCc2ccccc2)O1` (stereo not given in full), the TGI in the test on COLO 205 colon, in the test with K-562 leukemia, in the test with OVCAR-3 ovarian, with OVCAR-5 ovarian, in the test on SF-295 CNS and with SK-MEL-5 melanoma was over 100 µM in each case. The figures for the TGI in the test on SNB-75 CNS and with SR leukemia were over 100 µM and 31.4 µM, respectively.
On to `Clc1ccc(/C(=C/c2ccccc2)Cn2ccnc2)cc1`, for which the TGI in the test on COLO 205 colon was 38.5 µM; in the test on K-562 leukemia, over 100 µM; in the test with OVCAR-5 ovarian, over 100 µM; in the test with RPMI-8226 leukemia, 73.6 µM; with SF-295 CNS it was over 100 µM; in the test on SK-MEL-5 melanoma, 36.4 µM. Besides, the figures for the concentration for total growth inhibition (TGI) in the test on SNB-75 CNS and in the test with SR leukemia were over 100 µM and 78.4 µM, respectively.
Regarding `N#C/C(C(=O)NCc1ccccc1)=C(/N)N1CCCC1`, the TGI with COLO 205 colon, in the test on K-562 leukemia, in the test on OVCAR-3 ovarian, in the test on OVCAR-5 ovarian, with RPMI-8226 leukemia and with SF-295 CNS was over 100 µM each time. Further, the concentration for total growth inhibition (TGI) in the test with SK-MEL-5 melanoma and in the test on SR leukemia was over 100 µM each time.
For `O=C(NC(C(F)(F)F)(C(F)(F)F)P(=O)(Cc1ccccc1)Cc1ccccc1)C(C(F)(F)F)C(F)(F)F`, the total growth inhibition concentration (TGI) is 38 µM in the test with COLO 205 colon; over 100 µM in the test on K-562 leukemia; over 100 µM with OVCAR-3 ovarian; 41.8 µM in the test with OVCAR-5 ovarian; 72 µM with RPMI-8226 leukemia; 44.6 µM with SF-295 CNS. The TGI is 29.1 µM with SK-MEL-5 melanoma and 80.6 µM in the test with SR leukemia.
Turning to `O=C(C(=C(I)I)c1ccccc1)c1ccccc1`, the total growth inhibition concentration (TGI) in the test on COLO 205 colon is over 100 µM; with K-562 leukemia, 21.4 µM; in the test on OVCAR-3 ovarian, 42.3 µM; with OVCAR-5 ovarian, over 100 µM; in the test with RPMI-8226 leukemia, 45.5 µM; with SF-295 CNS, 65.5 µM. In addition, the figures for the concentration for total growth inhibition (TGI) with SK-MEL-5 melanoma and in the test on SR leukemia were 30.9 µM and 93.6 µM, respectively.
Regarding `O=c1c2c3c(sc2nc2n1N=C(c1ccc(Br)cc1)CS2)CCCC3`, the total growth inhibition concentration (TGI) in the test with COLO 205 colon, in the test with K-562 leukemia, in the test with OVCAR-3 ovarian, with OVCAR-5 ovarian, in the test with SF-295 CNS and with SNB-75 CNS was over 100 µM throughout. Besides, in the test with SR leukemia, the concentration for total growth inhibition (TGI) is over 100 µM.
Regarding `CN(C)/N=N/c1nc2c(c(=O)n(C)c(=O)n2C)n1CC1CO1` (stereo not given), the total growth inhibition concentration (TGI) in the test with COLO 205 colon was 27.3 µM; in the test on K-562 leukemia, 60.2 µM; in the test with OVCAR-3 ovarian it was 31.4 µM; in the test with OVCAR-5 ovarian, over 100 µM; in the test on RPMI-8226 leukemia, 93.1 µM; in the test with SF-295 CNS, 56.9 µM. Also, the TGI in the test on SK-MEL-5 melanoma turned out to be 25.5 µM; with SNB-75 CNS, 43.6 µM.
As to `CC(=N/NC(=S)N(C)C)/C(=N\NC(=S)N(C)C)c1ccccc1`, the TGI is 3.33 µM in the test on COLO 205 colon; over 100 µM in the test on K-562 leukemia; 3.68 µM in the test with OVCAR-3 ovarian; 5.03 µM in the test with OVCAR-5 ovarian; 4.46 µM with SF-295 CNS; 3.14 µM in the test with SK-MEL-5 melanoma. The TGI in the test with SNB-75 CNS is 4.62 µM.
With `Cn1c(=O)cc(NNc2ccc(Cl)c(Cl)c2)[nH]c1=O`, the TGI in the test with COLO 205 colon came out at 35.8 µM; with K-562 leukemia, 23.1 µM; in the test on OVCAR-3 ovarian it was 28.8 µM; in the test on OVCAR-5 ovarian, 31.5 µM; in the test on SF-295 CNS, 43.2 µM; in the test on SK-MEL-5 melanoma, 19.3 µM. In addition, the total growth inhibition concentration (TGI) was 48.4 µM in the test on SNB-75 CNS and over 100 µM in the test with SR leukemia.
For the molecule `Oc1ccccc1/C=N/N1C(=S)N(C23CC4CC(CC(C4)C2)C3)C(=Nc2ccccc2)C1=Nc1ccccc1`, the total growth inhibition concentration (TGI) in the test on COLO 205 colon, with K-562 leukemia, with OVCAR-3 ovarian, in the test on OVCAR-5 ovarian, in the test with RPMI-8226 leukemia and in the test with SF-295 CNS was over 100 µM throughout. Moreover, the TGI in the test with SK-MEL-5 melanoma and in the test with SR leukemia was over 100 µM each time.
Take `CN(C)CCNCCCNc1c2ccccc2nc2cccc([N+](=O)[O-])c12`: the TGI in the test on COLO 205 colon was 0.0245 µM; with K-562 leukemia, under 0.0184 µM; in the test with OVCAR-3 ovarian, 0.0466 µM; in the test with OVCAR-5 ovarian, 0.0543 µM; with RPMI-8226 leukemia, under 0.0226 µM; in the test with SF-295 CNS it was 0.0741 µM. Moreover, the figures for the TGI in the test with SK-MEL-5 melanoma and in the test on SNB-75 CNS were 0.0507 µM and 0.0573 µM, respectively.
Regarding `CNC(=S)N1CCN(C(C)=O)C1=S`, the TGI in the test with COLO 205 colon, with K-562 leukemia, with OVCAR-3 ovarian, with OVCAR-5 ovarian, in the test with SF-295 CNS and in the test with SK-MEL-5 melanoma was over 100 µM each time. Also, the TGI in the test with SNB-75 CNS was 72.9 µM; with SR leukemia, over 100 µM.
As for `COc1cc2c(c(OC)c1)[C@H](C)N(Cc1ccccc1)C(C)C2` (stereo not given in full), the total growth inhibition concentration (TGI) with COLO 205 colon was over 100 µM; in the test on K-562 leukemia, over 100 µM; in the test on RPMI-8226 leukemia it was over 100 µM; in the test with SF-295 CNS, over 100 µM; in the test on SK-MEL-5 melanoma, 90.3 µM; in the test on SNB-75 CNS, over 100 µM. Also, in the test with SR leukemia, the total growth inhibition concentration (TGI) was over 100 µM.
